The record followed here is patent US6458806B1, “Aryl alkenamides derivatives as MCP-1 antagonists” (Millennium Pharmaceuticals, Inc., priority 1996, dated 2002).

The target of one data set is T1, MCP-1 receptor (Homo sapiens, UniProt P41597).
T1 construct: host or cells: THP-1 cell membranes
As to the kind of experiment: MCP-1 binding assay (125I-MCP-1, THP-1 cell membranes). The conditions noted are these: 0.2 nM 125I-labeled MCP-1, averages of several or two experiments, read-out: Inhibition Of MCP-1 Binding IC50. As to the method:
Membranes used in the MCP-1 binding assay were prepared from THP-1 cells (human monocytic cell line source—American Type Culture Collection, Tumor Immunology Bank #202, Rockville, Md., accession no. ATCC TIB 202). Cells were harvested by centrifugation and washed twice in ice-cold PBS (phosphate-buffered saline) and the cell pellet was frozen at −80° C. in some cases. Cells were resuspended in ice-cold lysis buffer 5mM HEPES (2-(4N-,[2-hydroxyethyl] piperazin-1-yl)-N′-(2-ethanesulfonic acid), pH 7.5, 2 mM EDTA (ethylenediaminetetraacetic acid), 5 ug/ml each leupeptin, aprotinin, chymostatin (protease inhibitors), and 100 ug/ml PMSF (phenylmethane sulfonyl fluoride—also a protease inhibitor)) at a concentration of 5×10^7 cells/ml. […] Typical binding assays used 10-20 ug/well of total membrane protein as determined with a standard protein assay (e.g. BioRad, Richmond, Calif.).
For binding, 10-20 ug total membrane protein were included in the binding reaction along with 0.2 nM I^125-labeled MCP-1 (Amersham, Arlington Heights, Ill.) with or without unlabeled competitor MCP-1 (Peprotech, Rocky Hill, N.J.) (at 250-500 nM). […] Filters were dried and counted in a Beta-Plate scintillation counter using standard scintillation fluid. […]
IC50s were calculated using a non-linear 3-parameter logistic curve fit. […]

Structures can show the parent of a compound that is named as a salt.

T1 sequence (P41597 whole entry): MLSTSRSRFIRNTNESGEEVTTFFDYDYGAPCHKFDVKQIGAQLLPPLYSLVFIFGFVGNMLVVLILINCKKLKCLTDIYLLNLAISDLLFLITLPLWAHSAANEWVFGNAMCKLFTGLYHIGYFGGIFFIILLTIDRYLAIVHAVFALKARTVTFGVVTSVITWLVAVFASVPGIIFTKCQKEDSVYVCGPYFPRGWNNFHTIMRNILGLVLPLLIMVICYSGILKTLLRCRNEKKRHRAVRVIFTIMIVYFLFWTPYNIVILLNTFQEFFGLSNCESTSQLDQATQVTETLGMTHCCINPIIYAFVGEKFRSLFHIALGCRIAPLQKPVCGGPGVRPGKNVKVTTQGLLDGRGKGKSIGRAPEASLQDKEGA

Consider `O=C(/C=C/C=C/c1ccc(Cl)c(Cl)c1)NCCCN1CCCCC1` (as salt: HCl) [Example 1, 5-(3,4-Dichloro-phenyl)-penta-2,4-dienoic Acid (3-piperidin-1-yl-propyl)-amide-HCl], for which the melting point was in the range of 192 to 194 °C.
Turning to `O=C(C=CC=Cc1ccc(Cl)c(Cl)c1)NCCCN1CCOCC1` [Example 2, 5-(3,4-Dichloro-phenyl)-penta-2,4-dienoic Acid (3-morpholin-4-yl-propyl)-amide], the melting point was in the range of 130 to 132 °C. The IC50 at MCP-1 receptor came out at 10.8 µM.
Compound `Cc1ccc(/C=C/C=C/C(=O)NCCCN2CCCCC2)cc1` [Example 9, (2E,4E)-5-p-Tolyl-penta-2,4-dienoic Acid (3-piperidin-1-yl-propyl)-amide] had a melting point of 40 to 50 °C.
In turn, `COc1ccc(/C=C/C=C/C(=O)NCCCN2CCCCC2)cc1` [Example 10, (2E,4E)-5-(4-Methoxy-phenyl)-penta-2,4-dienoic Acid (3-piperidin-1-yl-propyl)-amide] returned a melting point of 69 to 73 °C.
In the case of `O=C(/C=C/C=C/c1ccc([N+](=O)[O-])cc1)NCCCN1CCCCC1` [Example 11, (2E,4E)-5-(4-Nitro-phenyl)-penta-2,4-dienoic Acid (3-piperidin-1-yl-propyl)-amide], the melting point lay within 225 to 226 °C.
`O=C(/C=C/C=C/c1ccc(Cl)cc1)NCCCN1CCCCC1` [Example 12, (2E,4E)-5-(4-Chloro-phenyl)-penta-2,4-dienoic Acid (3-piperidin-1-yl-propyl)-amide] had a melting point of 60 to 62 °C.
In the case of `O=C(/C=C/C=C/c1ccccc1)NCCCN1CCCCC1` [Example 13, (2E,4E)-5-Phenyl-penta-2,4-dienoic Acid (3-piperidin-1-yl-propyl)-amide], the melting point fell in the range of 111 to 115 °C.
Same read-out and setting: next, `O=C(/C=C/C=C/c1ccc(-c2ccccc2)cc1)NCCCN1CCCCC1` [Example 14, (2E,4E)-5-Biphenyl-4-yl-penta-2,4-dienoic Acid (3-piperidin-1-yl-propyl)-amide]: 165 to 168 °C; `O=C(/C=C/C=C/c1ccc2ccccc2c1)NCCCN1CCCCC1` [Example 15, (2E,4E)-5-Naphthalen-2-yl-penta-2,4-dienoic Acid (3-piperidin-1-yl-propyl)-amide]: 150 to 156 °C; `O=C(/C=C/C=C/c1cc(Cl)cc(Cl)c1)NCCCN1CCCCC1` [Example 16, (2E,4E)-5-(3,5-Dichloro-phenyl)-penta-2,4-dienoic Acid (3-piperidin-1-yl-propyl)-amide]: 186 to 187 °C.
The same measure, in the same setting: for `O=C(/C=C/C=C/c1ccc(Cl)cc1Cl)NCCCN1CCCCC1` [Example 17, (2E,4E)-5-(2,4-Dichloro-phenyl)-penta-2,4-dienoic Acid (3-piperidin-1-yl-propyl)-amide] the value was 66 to 69 °C.
Turning to `CC(/C=C/c1ccc(Cl)c(Cl)c1)=C\C(=O)NCCCN1CCCCC1` [Example 19, (2E,4E)-5-(3,4-Dichloro-phenyl)-3-methyl-penta-2,4-dienoic Acid (3-piperidin-1-yl-propyl)-amide], the melting point was 165 to 170 °C.
On to `CC(=C/C(=O)NCCCN1CCCCC1)/C=C/c1ccc(Cl)c(Cl)c1` [Example 20, (2Z,4E)-5-(3,4-Dichloro-phenyl)-3-methyl-penta-2,4-dienoic Acid (3-piperidin-1-yl-propyl)-amide], for which the melting point lay within 50 to 60 °C.
For `C/C(=C\C=C\C(=O)NCCCN1CCCCC1)c1ccc(Cl)c(Cl)c1` [Example 21, (2E,4E)-5-(3,4-Dichloro-phenyl)-hexa-2,4-dienoic Acid (3-piperidin-1-yl-propyl)amide], the melting point lay in the range of 65 to 70 °C.
Same read-out and setting: for `O=C(/C=C/C=C(c1ccccc1)c1ccccc1)NCCCN1CCCCC1` [Example 22, (2E) -5,5-Diphenyl-penta-2,4-dienoic acid (3-piperidin-1-yl-propyl)-amide] the value was 55 to 65 °C.

Usually melting point stands for the temperature, or range, at which the solid turns liquid. Broadly, the IC50 is the concentration that inhibits the measured activity by half.
